Columns and labels:
[1] = system: P19 cells, embryonal pluripotent murine teratocarcinoma cell line; conditions: cultured P19 cells; McBurney et al., Nature 1982; cited from earlier work
[2] = system: P19 cells, embryonal pluripotent murine teratocarcinoma cell line; conditions: after 4 days of treatment, RT-PCR and RNase protection; for prodynorphin gene expression: P19 indifferentiated cells in suspension; for gene induction of the GATA-4 and Nkx-2.5 genes: P19 indifferentiated cells, follows the prodynorphin increase
Description: The experiments were carried out on P19 cells, embryonal pluripotent murine teratocarcinoma cell line (European Collection of Cell Cultures, UK). These cultured cells indifferentiately proliferate but can be transformed into several cell phenotypes in the presence of differentiating agents, thus selectively summarising the first molecular events that take place during the embryonal growth. […] P19 cells are cultivated in a suspension in alpha-mem medium in 60 mm Petri dishes, either in the absence or in the presence of the hyaluronan esters of the invention. After 4 days of treatment, the total RNA was extracted according to the procedure described by Chomczynsky and Sacchi (Chomczynsky, P., N. Sacchi, Anal. Biochem. 162: 156-159, 1987) and the expression of specific transcripts was evaluated by RT-PCR and RNase protection.

Row | Compound | differentiation phenotype of P19 cells in the presence of a differentiating agent [1] | prodynorphin gene expression [2] | gene induction of the GATA-4 and Nkx-2.5 genes [2]
1 | C[S+](C)[O-] [DMSO, dimethylsulphoxide] | turn into myocardial cells supplied with spontaneous contractile activity | – | –
2 | CC(C=CC1=C(C)CCCC1(C)C)=CC=CC(C)=CC(=O)O [retinoic acid, 3,7-dimethyl-9-(2,6,6-trimethyl-1-cyclohexene-1-yl)-2,4,6,8-nonatetraenoic acid] | turn into neuronal cells | – | –
3 | Ester of Hyaluronan with Trans-Retinoic Acid [Example 4] | – | marked increase | gene induction
4 | Hyaluronan Ester with Trans-Retinoic Acid [Example 3] | – | marked increase | gene induction
